For data set [1] the following is noted: for Cmax GB: 4.5 mg, pH 2; for AUC / Cmax IB: pH 5.5.
The conditions of data set [2]: label / literature; cited from earlier work.
For the next data set, the system named is SOD1 mouse model. The settings on record: cited from earlier work.
A further data set is described as follows: in vivo. To be noted: male, Sprague-Dawley, rat, 400 mg/kg. As to the method:
Rats were allowed to eat ad libitum before testing. […] Following drug administration, 200 μl of plasma was collected from each animal at the following time points: 30, 60, 90, 120, 160 and 240 minutes. Plasma samples were snap frozen in liquid N2 and stored at −80° C. until analysis.

[3] abbreviates: SOD1 mouse model, published results (Shin et al. 2012; Lincecum et al. 2010).

Turning to `O=C(O)c1cc(N=Nc2ccc(S(=O)(=O)Nc3ccccn3)cc2)ccc1O` [Amorphous sulfasalazine, sulfasalazine], in data set [1], the “Cmax GB” value stood at 154000 ng/mL, the AUC is recorded as 30,300 min * ug/mL and the “Cmax IB” value was 372000 ng/mL.
`Nc1ccc(S(=O)(=O)Nc2ccccn2)cc1` [Sulfapyridine, sulfapyridine]: the “bioavailability (share reaching the circulation following oral dosing)” value in data set [2] was above 70%.
`Nc1nc2ccc(OC(F)(F)F)cc2s1` [riluzole]: in the data set on SOD1 mouse model (SOD1 model, Lincecum et al. 2010), the increased absolute lifespan was 1.6%. For the same compound, the “increased lifespan after onset of neurological disease” value with SOD1 mouse model (setting [3]) is 1%.
Turning to `O=C(O)c1cc(N=Nc2ccc(S(=O)(=O)Nc3ccccn3)cc2)ccc1O` [Crystalline sulfasalazine, sulfasalazine], in data set [1], the “Cmax GB” value worked out at 15000 ng/mL, the AUC is on record as 22,200 min * ug/mL and the “Cmax IB” value worked out at 282000 ng/mL. In “in vivo”, this compound displayed a concentration at 0.5 h of 1490 ng/mL, a concentration at 1 h of 1140 ng/mL, a concentration at 1.5 h of 1430 ng/mL and a concentration at 2 h of 1260 ng/mL. In the data set “in vivo”, this compound returned a concentration at 3 h of 1030 ng/mL and a concentration at 4 h of 850 ng/mL.
In the case of `CC(C)Cc1ccc(C(C)C(=O)O)cc1` (stereo not shown) [ibuprofen], the “decreased lifespan after onset of neurological disease” value in the data set with SOD1 mouse model (setting [3]) is recorded as 10%.

The values above are taken from US10398713B2, “Compositions and methods for the treatment of neurodegenerative and other diseases” (Glialogix, Inc., priority 2013, dated 2019).
